# Assay results published in US20230030989A1, “JUST SUNSCREEN” (Pouch Pac Innovations, LLC, priority 2019, published 2023).
# Details: in vivo
# Source text: Subjects reported to the testing facility, at which time inclusion/exclusion criteria was reviewed and Informed Consent obtained. Upon verification of eligibility to enroll, the test articles were applied to the upper arm of each subject. The test articles were applied to the Webril□ disks according to a dose regime (see Section 5.1). The skin was marked with dots of crystal violet applied on either side of the top disk and below the bottom disk of the strip to enable exact location of subsequent patches. Each subject was asked to avoid the dye marks during washing and to keep the patches dry.
# Subjects received patches containing the test article and two standard controls which were applied as 0.2 ml/0.2 g samples in one of five randomly assigned orders on the upper arm. The sample order for each subject was documented and maintained throughout the study in the form of a color-coded identification card. Subjects were instructed to keep the patches dry and in place for 23 hours then to remove and discard them and to return to the test center one hour later. Patches were applied on Days 1, 2, 3 and 4. Patches were applied to the same site on each day unless a reaction stronger than a mild erythema (i.e. greater than a score of 1.5 (Appendix 5)) was present in which case the patch strip was cut and the relevant patch (es) not reapplied. Assessment of patch sites was immediately before application of the next patch on Days 2, 3, 4 and on Day 5. After removal of the patches the test sites were wiped with a damp tissue to remove any remaining product.
smiles,measurement,value
CCCCCCCCCCCCOS(=O)(=O)[O-].[Na+] [0.3% W/V SLS],"patch site score Day 2, MEAN",0.08
same,"patch site score Day 3, MEAN",0.37
same,"patch site score Day 4, MEAN",0.63
same,"patch site score Day 5, MEAN",0.82
